What was measured:
[1] = system: lung A-549 cancer cell line; test: In vitro cytotoxic activity (MTT assay), A-549; settings: for inhibition at 100 µM / IC50: Homo sapiens; for inhibition at 100 µM: A549, 48 h, read-out: % inhibition ± SD A-549; for IC50: A549, read-out: IC50 (mean ± SD) A-549
Protocol: Exponentially, cells were placed in 10^4 cells/ well for 24 h, and then add fresh medium which containing different concentration of the tested sample. Serial two-fold dilution of the tested sample were added using a multichannel pipette. […] Rinse the wells using water until no stain. After that, add 30% glacial acetic acid to all wells with shaking plates on Microplate reader (TECAN, Inc.) to measure the absorbance, using a test wavelength of 490 nm. Besides, compare the treated samples with the control cell.

[2] = system: liver HepG-2 cancer cell line; test: In vitro cytotoxic activity (MTT assay), HepG-2; settings: for IC50: Homo sapiens, HepG2, read-out: IC50 (mean ± SD) HepG-2
Text: (§1) The supplemental file contained extra details.

[3] = system: retinal pigment epithelial normal RPE-1 cell line; test: Cytotoxic activity (MTT assay) against normal cell line RPE-1; format: cell-based; settings: Homo sapiens, normal RPE-1 cells, read-out: IC50 (mean ± SD) RPE-1
Text: Furthermore, the MTT assay was utilized to estimate the cytotoxic activity of the extremely potent derivatives 4, 7 and 9 against the normal cell line RPE-1, with the aim of examining their safety profiles (Table 1). […] They could therefore be thought of as safe cytotoxic agents.
as §1

hCA XII = biological target: T1, hCA XII (Homo sapiens, UniProt O43570); test: Carbonic anhydrase inhibition, stopped-flow CO2 hydration, hCA XII; format: biochemical; settings: read-out: IC50 (mean ± SD) Carbonic anhydrase isoforms hCA XII
T1 construct: made in house
T1 sequence (O43570 25-354): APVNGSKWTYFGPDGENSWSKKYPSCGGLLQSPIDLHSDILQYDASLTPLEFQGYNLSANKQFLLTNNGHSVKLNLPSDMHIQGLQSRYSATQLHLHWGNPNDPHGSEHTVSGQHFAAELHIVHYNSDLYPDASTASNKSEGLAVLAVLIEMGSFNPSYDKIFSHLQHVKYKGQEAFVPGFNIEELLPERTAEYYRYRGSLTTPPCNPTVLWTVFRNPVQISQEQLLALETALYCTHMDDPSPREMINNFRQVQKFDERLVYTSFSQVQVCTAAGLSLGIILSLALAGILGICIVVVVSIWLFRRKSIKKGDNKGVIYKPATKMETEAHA
Protocol: (§2) There was further information in the supplemental file.
(§3) An applied photophysics stopped-flow instrument was used for assaying the CA-catalyzed CO2 hydration activity. […] The CO2 concentrations ranged from 1.7 to 17 mM for the determination of the kinetic parameters and inhibition constants. For each inhibitor, at least six traces of the initial 5–10% of the reaction were used for determining the initial rate. The uncatalyzed rates were determined in the same manner and subtracted from the total observed rates. Stock solutions of inhibitor (0.1 mM) were prepared in distilled-deionized water, and dilutions up to 0.01 nM were done thereafter with distilled-deionized water. Inhibitor and enzyme solutions were preincubated together for 15 min at room temperature before assay in order to allow for the formation of the E-I complex. The inhibition constants were obtained by nonlinear least-squares methods using PRISM 3, and the Cheng –Prusoff equation, and represent the mean from at least three different determinations. All CA isoforms were recombinant ones obtained in-house.

[4] = system: breast MCF-7 cancer cell line; test: In vitro cytotoxic activity (MTT assay), MCF-7; format: cell-based, human; settings: for inhibition at 100 µM / IC50: Homo sapiens, MCF7; for inhibition at 100 µM: 48 h, read-out: % inhibition ± SD MCF-7; for IC50: MCF-7 cells, MTT, read-out: IC50 (mean ± SD) MCF-7
Text: as §1

[5] = system: colorectal HCT-116 cancer cell line; test: In vitro cytotoxic activity (MTT assay), HCT-116; format: cell-based, human; settings: for inhibition at 100 µM / IC50: Homo sapiens; for inhibition at 100 µM: HCT-116, 48 h, read-out: % inhibition ± SD HCT-116; for IC50: HCT-116 cells, MTT, read-out: IC50 (mean ± SD) HCT-116
Text: as §1

VEGFR-2 = VEGFR-2 (Homo sapiens, UniProt P35968); test: In vitro inhibitory assessment against VEGFR-2 (ELISA, MCF-7 cell homogenates); format: cell-based; settings: read-out: IC50 (mean ± SD) VEGFR-2
Chain of VEGFR-2 (P35968 20-1356): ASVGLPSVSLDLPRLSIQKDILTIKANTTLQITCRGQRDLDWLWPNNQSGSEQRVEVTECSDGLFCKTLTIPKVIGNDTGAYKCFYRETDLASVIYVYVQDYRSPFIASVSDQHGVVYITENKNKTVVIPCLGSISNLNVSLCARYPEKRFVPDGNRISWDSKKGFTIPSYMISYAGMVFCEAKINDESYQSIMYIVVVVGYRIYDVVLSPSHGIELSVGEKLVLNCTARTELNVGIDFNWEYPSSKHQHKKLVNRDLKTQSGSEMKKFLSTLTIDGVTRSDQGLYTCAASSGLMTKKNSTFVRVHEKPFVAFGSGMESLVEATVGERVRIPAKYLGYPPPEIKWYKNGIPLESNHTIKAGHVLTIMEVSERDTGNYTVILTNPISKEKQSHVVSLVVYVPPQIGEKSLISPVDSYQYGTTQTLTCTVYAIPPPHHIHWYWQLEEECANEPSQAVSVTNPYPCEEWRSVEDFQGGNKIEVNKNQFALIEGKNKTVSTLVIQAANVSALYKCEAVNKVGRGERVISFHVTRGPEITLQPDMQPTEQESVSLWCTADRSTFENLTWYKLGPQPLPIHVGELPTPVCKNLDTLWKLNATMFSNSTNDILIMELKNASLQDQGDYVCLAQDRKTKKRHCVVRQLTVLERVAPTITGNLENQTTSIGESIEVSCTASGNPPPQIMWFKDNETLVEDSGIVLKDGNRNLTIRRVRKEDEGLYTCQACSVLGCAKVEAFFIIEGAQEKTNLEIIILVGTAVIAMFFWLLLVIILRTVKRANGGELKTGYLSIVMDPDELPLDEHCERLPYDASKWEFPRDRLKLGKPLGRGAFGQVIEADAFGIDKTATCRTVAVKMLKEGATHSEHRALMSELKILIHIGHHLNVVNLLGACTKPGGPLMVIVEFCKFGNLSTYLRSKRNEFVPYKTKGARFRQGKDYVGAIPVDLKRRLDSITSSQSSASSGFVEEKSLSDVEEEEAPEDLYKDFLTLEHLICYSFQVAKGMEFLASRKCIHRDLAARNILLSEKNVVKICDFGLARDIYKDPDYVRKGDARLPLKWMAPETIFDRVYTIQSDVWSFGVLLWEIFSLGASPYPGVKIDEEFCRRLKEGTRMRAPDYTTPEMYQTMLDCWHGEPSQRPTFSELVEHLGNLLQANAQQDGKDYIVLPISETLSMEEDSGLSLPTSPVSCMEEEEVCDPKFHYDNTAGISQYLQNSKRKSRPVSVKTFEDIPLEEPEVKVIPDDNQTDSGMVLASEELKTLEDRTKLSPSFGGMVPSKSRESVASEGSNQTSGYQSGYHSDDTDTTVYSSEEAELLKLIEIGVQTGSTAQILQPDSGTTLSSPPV
Protocol: as §2
The cells were harvested and the homogenates were prepared in saline using a tight pestle homogenizer until complete cell disruption. The kit uses a double-antibody sandwich enzyme-linked immunosorbent assay (ELISA) to determine the level of human VEGFR-2 in samples. A monoclonal antibody for VEGFR-2 was pre-coated onto 96-well plates. The test samples are added to the wells and a biotinylated detection polyclonal antibody from goat specific for VEGFR-2 was added subsequently followed by washing with PBS buffer. Avidin-Biotin-Peroxidase complex was added and the unbound conjugates were washed away with PBS buffer. HRP substrate TMB was used to visualize HRP enzymatic reaction. TMB was catalyzed by HRP to produce a blue color product that changed into yellow after adding acidic stop solution. The density of yellow color is proportional to the human VEGFR-2 amount of the sample captured in the plate. The chroma of color and the concentration of the human VEGFR-2 of the samples were positively correlated and the optical density was determined at 450 nm. The level of human VEGFR-2 in samples was calculated (pg/ml) as duplicate determinations from the standard curve. Percent inhibition was calculated in comparison to control untreated cells.

hCA IX = biological target: T2, hCA IX (Homo sapiens, UniProt Q16790); test: Carbonic anhydrase inhibition, stopped-flow CO2 hydration, hCA IX; format: biochemical; settings: read-out: IC50 (mean ± SD) Carbonic anhydrase isoforms hCA IX
T2 construct: made in house
Protocol: as §2, §3

| Structure (SMILES) | percentage cytotoxicity on A-549 ([1]; 12.5 µM) | percentage cytotoxicity on A-549 ([1]; 25 µM) | percentage cytotoxicity on A-549 ([1]; 50 µM) | percentage cytotoxicity on A-549 ([1]; 100 µM) | inhibition at 100 µM [1] | IC50 [1] | percentage cytotoxicity on HepG-2 ([2]; 12.5 µM) | percentage cytotoxicity on HepG-2 ([2]; 25 µM) | percentage cytotoxicity on HepG-2 ([2]; 50 µM) | percentage cytotoxicity on HepG-2 ([2]; 100 µM) | IC50 [2] | IC50 [3] | IC50 (hCA XII) | percentage cytotoxicity on MCF-7 ([4]; 12.5 µM) | percentage cytotoxicity on MCF-7 ([4]; 25 µM) | percentage cytotoxicity on MCF-7 ([4]; 50 µM) | percentage cytotoxicity on MCF-7 ([4]; 100 µM) | inhibition at 100 µM ([4]; 100 µM) | IC50 [4] | percentage cytotoxicity on HCT-116 ([5]; 12.5 µM) | also measured |
| --- | --- | --- | --- | --- | --- | --- | --- | --- | --- | --- | --- | --- | --- | --- | --- | --- | --- | --- | --- | --- | --- |
| CC(=O)OC[C@H]1O[C@@H](OCc2cn(-c3ccc(S(=O)(=O)NC4CCCCC4)cc3)nn2)[C@H](OC(C)=O)[C@@H](OC(C)=O)[C@H]1OC(C)=O [Compound 7, N-cyclohexyl-4-(4-([2,3,4,6-tetra-O-acetyl-β-D-galactopyranosyl]oxymethyl)-1H-1,2,3-triazol-1-yl)benzenesulfonamide] | 12.60±0.82% | 29.31±0.02% | 60.23±1.47% | 94.10±0.51% | 94.1 ± 0.51% | 20.4 ± 0.28 µM | 84.09±0.85% | 85.07±0.05% | 85.58±0.88% | 87.60±1.73% | 10.5 ± 0.13 µM | 82.58 ± 0.52 µM | 0.0076 µM | 30.37±3.66% | 55.90±1.44% | 88.77±2.70% | 98.89±0.19% | 98.89 ± 0.19% | 20.3 ± 0.66 µM | 32.50±1.25% | percentage cytotoxicity on HCT-116 ([5]; 25 µM): 48.80±0.95%; percentage cytotoxicity on HCT-116 ([5]; 50 µM): 50.70±0.70%; percentage cytotoxicity on HCT-116 ([5]; 100 µM): 75.70±0.96%; inhibition at 100 µM ([5]; 100 µM): 75.7 ± 0.96%; IC50 [5]: 32 ± 0.42 µM; IC50 (VEGFR-2): 1.33 ± 0.1 µM; IC50 (hCA IX): 0.066 µM |
| [N-]=[N+]=Nc1ccc(S(=O)(=O)NC2CCCCC2)cc1 [Compound 4, 4-Azido-N-cyclohexylbenzenesulfonamide] | 21.37±1.55% | 34.87±0.75% | 70.87±1.63% | 97.43±0.67% | 97.43 ± 0.67% | 30.9 ± 0.65 µM | 85.13±1.65% | 86.23±0.98% | 85.67±2.50% | 87.30±0.91% | 12.5 ± 0.51 µM | 78.3 ± 1.56 µM | 0.0359 µM | 35.03±2.83% | 58.31±3.30% | 78.50±0.37% | 91.20±0.09% | 91.2 ± 0.09% | 19.6 ± 1.1 µM | 34.64±0.48% | percentage cytotoxicity on HCT-116 ([5]; 25 µM): 51.93±0.58%; percentage cytotoxicity on HCT-116 ([5]; 50 µM): 86.90±0.28%; percentage cytotoxicity on HCT-116 ([5]; 100 µM): 94.83±0.87%; inhibition at 100 µM ([5]; 100 µM): 94.83 ± 0.87%; IC50 [5]: 20.3 ± 0.33 µM; IC50 (VEGFR-2): 181 ± 0.66 µM; melting point: 65 to 67 °C; IC50 (hCA IX): 0.142 µM |

Source: article PMC11156913, “New sulfonamide-based glycosides incorporated 1,2,3-triazole as cytotoxic agents through VEGFR-2 and carbonic anhydrase inhibitory activity” (Scientific Reports, 2024)
